Data: patent publication US20110059869A1, “Method for Increasing Enzymatic Reactivity” (RIKEN, priority 2008, published 2011)

Key:
Type in all cases: biochemical
[1] = tested on: ligation enzymatic reaction solution of a SOLID system 2.0; experiment: Sequencing reaction in a SOLID sequencing system; conditions: 0.3 M trehalose vs none
Experimental: D(+)-trehalose was added to the ligation enzymatic reaction solution of a SOLID system 2.0 and the effects were measured. The experiment was conducted at a final D(+)-trehalose concentration of 0.3 M. The noise to signal ratio (N/S ratio) of each cycle was employed for comparison. The N/S ratio was obtained by dividing the second brightest fluorescence intensity by the brightest fluorescence intensity.
The D(+)-trehalose employed was D(+)-trehalose dihydrate (201-02253 reagent grade) (Wako). A SOLiD™ fragment library sequencing kit v2 (4400466) was employed for sequencing with the SOLID system (Applied Biosystems). The sample employed as a SOLiD™ DH10B fragment library control kit (4391889).
Probe Mixes A and B and bridge probe, prepared with the reagents contained in a SOLiD™ fragment library sequence kit v2 (4400466) and adjusted to a D(+)-trehalose (90208 BioChemika, 99.5% (HPLC)) (Fluka) concentration of 1.7 M, were added to each sequence primer in the quantities indicated below.
The operation was conducted according to the manufacturer's protocol following addition.

restriction enzyme BceAI = experiment: BceAI cleavage of biotin-labeled 300 bp DNA fragments adsorbed to streptavidin beads
Experimental: Biotin-labeled 300 by DNA fragments adsorbed (bound) to streptavidin beads were reacted with the restriction enzyme BceAI and the final concentration of the trehalose that was added to the system was examined as follows.
PCR was conducted with biotin-labeled primers (Seq. ID Nos. 1 and 2) on 300 by DNA fragments using pFLCIII vector as template. The fragments were cleaved at the type II restriction enzyme site BceAI, releasing 50 by DNA fragments that were detected. Paramagnetic streptavidin beads were washed with accessory 1× binding buffer, recovered with a magnetic stand to remove the supernatant, and then suspended in the same buffer. Equal volumes of the PCR product-containing solution and 2× binding buffer were mixed, the bead solution was added, and the mixture was gently stirred with top to bottom inversion and rotation for 15 minutes at room temperature to induce adsorption. The magnetic stand was used to recover the sample adsorption beads, which were washed three times with 1× binding buffer. They were then washed once with 1× BceAI buffer. […] The reaction solutions were added to washed beads, mixed, and reacted for 3 hours at 37° C. The beads were recovered with the magnetic stand and cleaved with restriction enzyme. The supernatant containing the cDNA that had been released was reacted with proteinase K, treated with phenol chloroform, and precipitated from ethanol. […]

[2] = tested on: E. coli DNA ligase, E. coli DNA polymerase I, E. coli RNaseH; experiment: Double-stranded cDNA synthesis (Gubler-Hoffman method) on cDNA/RNA hybrid adsorbed to streptavidin beads; conditions: 0.6 M trehalose, 3 hours at 16° C.
Experimental: RNA was reverse transcribed with Unique oligo-dT having various restriction enzyme sites. The cDNA/RNA hybrids obtained were used while still adsorbed to the beads to conduct a double-strand synthesis reaction by the Gubler-Hoffman method as set forth below.
A 15 ug quantity of 5′ end biotin-labeled primer (Seq. ID No. 3) for reverse transcription was employed for 12 ug of total RNA (mouse embryo, 17.5, female). Reverse transcription reaction solution (1× GC buffer (Takara), 0.3 mM dNTP mix, saturated sorbitol/trehalose solution 30 uL, M-MLV 3,000 units) was added α[32P]dGTP was added, and the mixture was reacted for 30 minutes at 42° C., 10 minutes at 50° C., and 10 minutes at 56° C. Following reaction with proteinase K, the mixture was precipitated from CTAB/urea and redissolved in 7 M Gu-HCl. EtOH precipitation was then conducted. […]
Streptavidin beads on which was adsorbed cDNA/RNA hybrid were washed once with double-stranded synthesis-use reaction buffer ([…], Invitrogen). […] The mixture was washed three times with 1× binding buffer and measured with a liquid scintillation counter. The synthesis rate of double-stranded cDNA and the yield were calculated (Scheme 1).

## OC[C@H]1O[C@H](O[C@H]2O[C@H](CO)[C@@H](O)[C@H](O)[C@H]2O)[C@H](O)[C@@H](O)[C@@H]1O [trehalose, D(+)-trehalose]
[1]
  noise to signal ratio (N/S ratio) with each cycle: reduced the rise in noise
Restriction enzyme BceAI; 0 M, 0.3 M, 0.6 M, and 0.8 M trehalose
  change in yield of 50 by fragments with trehalose concentration: No change was observed beyond 0.6 M
Restriction enzyme BceAI; trehalose added vs not added, beads, 3 hours at 37° C.
  yield of 50 by fragments released by cleavage: increased
[2]
  double-stranded cDNA synthesis rate, increase over trehalose (−) conditions: 1.25 fold
